Measurements taken from the supplement of paper PMC10307832.

Assays:
Experiment in all cases: relative viability (nuclei count vs DMSO), 5 days (fraction); higher = more cells survive
[1] = compound: N#CC1(c2ccc(NC(=O)c3cccnc3NCc3ccncc3)cc2)CCCC1 [Apatinib] + CCNC(=O)c1noc(-c2cc(C(C)C)c(O)cc2O)c1-c1ccc(CN2CCOCC2)cc1 [Luminespib] (partner 0.01 µM)
Summary of the method: (§1)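 The day after seeding in 1536-well plates, lung cancer cell lines were treated by pin tool with a single drug, or with a fixed anchor-drug dose together with five library-drug doses (not always all listed) in √10 steps. After 5 days, a combined fix-and-stain solution (final 0.05% Triton X-100, 1% formaldehyde, 1 ug/ml Hoechst) was added. Nuclei counted on 4× images gave relative viability as treated counts over vehicle counts, reported as the median of duplicate plates.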

[2] = compound: N#CC1(c2ccc(NC(=O)c3cccnc3NCc3ccncc3)cc2)CCCC1 [Apatinib] + Cc1nc(Nc2ncc(C(=O)Nc3c(C)cccc3Cl)s2)cc(N2CCN(CCO)CC2)n1 [Dasatinib] (partner 0.075 µM)
Summary of the method: as §1

[3] = compound: CN(C)C(=N)NC(=N)N [Metformin] + CC1(C)CCC(c2ccc(Cl)cc2)=C(CN2CCN(c3ccc(C(=O)NS(=O)(=O)c4ccc(N[C@H](CCN5CCOCC5)CSc5ccccc5)c(S(=O)(=O)C(F)(F)F)c4)cc3)CC2)C1 [Navitoclax] (partner 0.5 µM)
Summary of the method: as §1

[4] = compound: CN(C)C(=N)NC(=N)N [Metformin] + CS(=O)(=O)CCNCc1ccc(-c2ccc3ncnc(Nc4ccc(OCc5cccc(F)c5)c(Cl)c4)c3c2)o1 [Lapatinib] (partner 2 µM)
Summary of the method: as §1

## SW 900
[1]; first compound 0.08 µM
  relative viability: 0.171
[1]; first compound 0.253 µM
  relative viability: 0.178
[1]; first compound 0.8 µM
  relative viability: 0.175
[1]; first compound 2.53 µM
  relative viability: 0.185
[1]; first compound 8 µM
  relative viability: 0.177
[2]; first compound 0.08 µM
  relative viability: 0.699
[2]; first compound 0.253 µM
  relative viability: 0.429
[2]; first compound 0.8 µM
  relative viability: 0.545
[2]; first compound 2.53 µM
  relative viability: 0.476
[2]; first compound 8 µM
  relative viability: 0.491

## NCI-H1975
[3]; first compound 10 µM
  relative viability: 1.23
[3]; first compound 31.62 µM
  relative viability: 1.32
[3]; first compound 100 µM
  relative viability: 1.28
[3]; first compound 316.23 µM
  relative viability: 1
[3]; first compound 1000 µM
  relative viability: 1.23
[4]; first compound 10 µM
  relative viability: 0.98
[4]; first compound 31.62 µM
  relative viability: 1.27
[4]; first compound 100 µM
  relative viability: 0.935
[4]; first compound 316.23 µM
  relative viability: 1.05
[4]; first compound 1000 µM
  relative viability: 1.06
[1]; first compound 0.08 µM
  relative viability: 0.167
[1]; first compound 0.253 µM
  relative viability: 0.195
[1]; first compound 0.8 µM
  relative viability: 0.229
[1]; first compound 2.53 µM
  relative viability: 0.176
[1]; first compound 8 µM
  relative viability: 0.262
[2]; first compound 0.08 µM
  relative viability: 0.469
[2]; first compound 0.253 µM
  relative viability: 0.313
[2]; first compound 0.8 µM
  relative viability: 0.262
[2]; first compound 2.53 µM
  relative viability: 0.26
[2]; first compound 8 µM
  relative viability: 0.281

## Calu-6
[3]; first compound 10 µM
  relative viability: 0.726
[3]; first compound 31.62 µM
  relative viability: 0.784
[3]; first compound 100 µM
  relative viability: 0.855
[3]; first compound 316.23 µM
  relative viability: 0.7
[3]; first compound 1000 µM
  relative viability: 0.619
[4]; first compound 10 µM
  relative viability: 0.864
[4]; first compound 31.62 µM
  relative viability: 1.03
[4]; first compound 100 µM
  relative viability: 0.979
[4]; first compound 316.23 µM
  relative viability: 0.913
[4]; first compound 1000 µM
  relative viability: 1.03

## EBC-1
[3]; first compound 10 µM
  relative viability: 0.364
[3]; first compound 31.62 µM
  relative viability: 0.405
[3]; first compound 100 µM
  relative viability: 0.356
[3]; first compound 316.23 µM
  relative viability: 0.362
[3]; first compound 1000 µM
  relative viability: 0.442
[4]; first compound 10 µM
  relative viability: 0.182
[4]; first compound 31.62 µM
  relative viability: 0.181
[4]; first compound 100 µM
  relative viability: 0.23
[4]; first compound 316.23 µM
  relative viability: 0.281
[4]; first compound 1000 µM
  relative viability: 0.248

## NCI-H1792
[3]; first compound 31.62 µM
  relative viability: 0.528
[3]; first compound 100 µM
  relative viability: 0.857
[3]; first compound 316.23 µM
  relative viability: 0.538
[3]; first compound 1000 µM
  relative viability: 0.617
[4]; first compound 31.62 µM
  relative viability: 0.87
[4]; first compound 100 µM
  relative viability: 1.03
[4]; first compound 316.23 µM
  relative viability: 0.795
[4]; first compound 1000 µM
  relative viability: 0.864
[1]; first compound 0.08 µM
  relative viability: 0.495
[1]; first compound 0.253 µM
  relative viability: 0.521
[1]; first compound 0.8 µM
  relative viability: 0.43
[1]; first compound 2.53 µM
  relative viability: 0.308
[1]; first compound 8 µM
  relative viability: 0.274
[2]; first compound 0.08 µM
  relative viability: 0.965
[2]; first compound 0.253 µM
  relative viability: 0.789
[2]; first compound 0.8 µM
  relative viability: 0.763
[2]; first compound 2.53 µM
  relative viability: 0.573
[2]; first compound 8 µM
  relative viability: 0.512

## NCI-H596
[3]; first compound 10 µM
  relative viability: 0.985
[3]; first compound 31.62 µM
  relative viability: 1.15
[3]; first compound 100 µM
  relative viability: 1.1
[3]; first compound 316.23 µM
  relative viability: 0.908
[3]; first compound 1000 µM
  relative viability: 1
[4]; first compound 10 µM
  relative viability: 1.18
[4]; first compound 31.62 µM
  relative viability: 1.22
[4]; first compound 100 µM
  relative viability: 1.07
[4]; first compound 316.23 µM
  relative viability: 1.06
[4]; first compound 1000 µM
  relative viability: 1.2
[1]; first compound 0.08 µM
  relative viability: 1.09
[1]; first compound 0.253 µM
  relative viability: 1.2
[1]; first compound 0.8 µM
  relative viability: 0.926
[1]; first compound 2.53 µM
  relative viability: 0.97
[1]; first compound 8 µM
  relative viability: 0.903
[2]; first compound 0.08 µM
  relative viability: 0.634
[2]; first compound 0.253 µM
  relative viability: 0.564
[2]; first compound 0.8 µM
  relative viability: 0.556
[2]; first compound 2.53 µM
  relative viability: 0.564
[2]; first compound 8 µM
  relative viability: 0.555

## NCI-H1650
[3]; first compound 10 µM
  relative viability: 1.16
[3]; first compound 31.62 µM
  relative viability: 1.34
[3]; first compound 100 µM
  relative viability: 1.46
[3]; first compound 316.23 µM
  relative viability: 1.37
[3]; first compound 1000 µM
  relative viability: 1.1
[4]; first compound 10 µM
  relative viability: 0.699
[4]; first compound 31.62 µM
  relative viability: 0.844
[4]; first compound 100 µM
  relative viability: 0.949
[4]; first compound 316.23 µM
  relative viability: 0.707
[4]; first compound 1000 µM
  relative viability: 0.648
[1]; first compound 0.253 µM
  relative viability: 0.185
[1]; first compound 0.8 µM
  relative viability: 0.217
[1]; first compound 2.53 µM
  relative viability: 0.179
[1]; first compound 8 µM
  relative viability: 0.168
[2]; first compound 0.253 µM
  relative viability: 0.346
[2]; first compound 0.8 µM
  relative viability: 0.341
[2]; first compound 2.53 µM
  relative viability: 0.23
[2]; first compound 8 µM
  relative viability: 0.262

## NCI-H1944
[3]; first compound 10 µM
  relative viability: 0.968
[3]; first compound 31.62 µM
  relative viability: 1.04
[3]; first compound 100 µM
  relative viability: 1.04
[3]; first compound 316.23 µM
  relative viability: 0.966
[3]; first compound 1000 µM
  relative viability: 1.07
[4]; first compound 10 µM
  relative viability: 0.686
[4]; first compound 31.62 µM
  relative viability: 0.961
[4]; first compound 100 µM
  relative viability: 0.931
[4]; first compound 316.23 µM
  relative viability: 0.751
[4]; first compound 1000 µM
  relative viability: 0.886
[1]; first compound 0.08 µM
  relative viability: 0.701
[1]; first compound 0.253 µM
  relative viability: 0.773
[1]; first compound 0.8 µM
  relative viability: 0.667
[1]; first compound 2.53 µM
  relative viability: 0.644
[1]; first compound 8 µM
  relative viability: 0.494
[2]; first compound 0.08 µM
  relative viability: 0.247
[2]; first compound 0.253 µM
  relative viability: 0.204
[2]; first compound 0.8 µM
  relative viability: 0.208
[2]; first compound 2.53 µM
  relative viability: 0.254
[2]; first compound 8 µM
  relative viability: 0.249
